{
  "source": "patent US20260001854A1",
  "about": "“CONJUGATE COMPOUND COMPRISING 13-CIS-RETINOIC ACID AND ASCORBIC ACID” (Mastery Biotech CO., LTD., priority 2023, published 2026)",
  "key": {"[1]": {"experiment": "MTT cell viability (cytotoxicity) assay, A549", "type": "cell-based, human", "conditions": "human, A549 cells", "protocol": "(§1) Cells were cultured in indicated growth medium with 10% FBS and were maintained in a humidified incubator at 37° C. containing 5% CO2. Formula A2 compound was weighted and dissolved in DMSO/EtOH mixture solvent of 1/4 (v/v) ratio to a final concentration of 200 mM at the day of treatment. One day before treatment, cells at log-phase of growth were harvested, counted, and seeded in a 96-well plate at a density of 5×10^3 cells/[…]/well. After cultivation overnight, assumed wells were gently added with […] of fresh media prepared with the serial concentration from 40 to 1000 μM to bring the working concentration from 20 to 500 μM subsequently. The control plate without Formula A2 was carried out as the same procedure as above but […] of fresh media prepared with the equal solvent volume added. All plates were mixed gently and incubated for next 24 hours.\n(§2) At the day of cell viability detection, tested wells were added […] of MTT working solution and incubated at 37° C. for 3 hours. Spectrophotometric absorbance readings were recorded at wavelength of 540 nm. Readings from blank wells (wells contains only cell culture medium without cells) and negative control wells (wells with cell and culture medium without Formula A2 and solvent treatment) were recorded and used for calibration. After all readings of OD540 subtracted the blank value, the percentage of cell viability were calculated using the following formula: […]\n(§3) The concentration of Compound A that inhibited cell survival to 50% (IC50) was determined by an online tool “Quest Graph™ IC50 Calculator.” AAT Bioquest, Inc., 26 June. 2024, www.aatbio.com/tools/ic50-calculator."}, "A549": {"tested_on": "A549", "experiment": "MTT cell viability (cytotoxicity) assay, A549", "type": "cell-based, human", "conditions": "Homo sapiens; A549 cell line, estimated from cell viability values with Quest Graph IC50 Calculator; read-out: IC50 (concentration that inhibited cell survival to 50%)", "protocol": "as §1, §2, §3"}, "[2]": {"experiment": "MTT cell viability (cytotoxicity) assay, A549", "type": "cell-based", "conditions": "human, A549 cells"}, "[3]": {"experiment": "MTT cell viability (cytotoxicity) assay, PANC-1", "type": "cell-based", "conditions": "human, PANC-1 cells, mean of 6 wells", "protocol": "as §1, §2, §3"}, "[4]": {"experiment": "MTT cell viability (cytotoxicity) assay, Caco-2", "type": "cell-based", "conditions": "human, mean of 6 wells", "protocol": "as §1, §2, §3"}},
  "data": [
    {"smiles": "CC1=C(/C=C/C(C)=C/C=C/C(C)=C\\C(=O)O)C(C)(C)CCC1", "note": "[13-cis retinoic acid, (2Z,4E,6E,8E)-3,7-dimethyl-9-(2,6,6-trimethylcyclohex-1-en-1-yl)nona-2,4,6,8-tetraenoic acid, reference compound]", "values": [
      {"measurement": "viability at 24 h, 30 μM", "setting": "[1]; 13-cis RA 30 μM", "result": 75, "unit": "%"},
      {"measurement": "viability at 24 h, 60 μM", "setting": "[1]; 13-cis RA 60 μM", "result": 73, "unit": "%"},
      {"measurement": "viability at 24 h, 120 μM", "setting": "[1]; 13-cis RA 120 μM", "result": 57, "unit": "%"},
      {"measurement": "viability at 24 h, 240 μM", "setting": "[1]; 13-cis RA 240 μM", "result": 50, "unit": "%"},
      {"measurement": "viability at 24 h, 480 μM", "setting": "[1]; 13-cis RA 480 μM", "result": 50, "unit": "%"},
      {"measurement": "IC50", "setting": "A549", "result": 518, "unit": "µM"},
      {"measurement": "viability at 24 h, 7.5 μM", "setting": "[2]; 13-cis RA 7.5 μM", "result": 95, "unit": "%"},
      {"measurement": "viability at 24 h, 15 μM", "setting": "[2]; 13-cis RA 15 μM", "result": 78, "unit": "%"},
      {"measurement": "viability at 24 h, 960 μM", "setting": "[2]; 13-cis RA 960 μM", "result": 51, "unit": "%"}
    ]},
    {"smiles": "CC1=C(/C=C/C(C)=C/C=C/C(C)=C\\C(=O)OC2=C(O)[C@@H]([C@@H](O)CO)OC2=O)C(C)(C)CCC1", "note": "[Formula A1]", "values": [
      {"measurement": "viability at 24 h, 20 μM", "setting": "[1]; Formula A1 20 μM, 24 hours, MTT, mean of 6 wells", "result": 102, "unit": "%"},
      {"measurement": "viability at 24 h, 100 μM", "setting": "[1]; Formula A1 100 μM, 24 hours, MTT, mean of 6 wells", "result": 100, "unit": "%"},
      {"measurement": "viability at 24 h, 150 μM", "setting": "[1]; Formula A1 150 μM, 24 hours, MTT, mean of 6 wells", "result": 80, "unit": "%"},
      {"measurement": "viability at 24 h, 180 μM", "setting": "[1]; Formula A1 180 μM, 24 hours, MTT, mean of 6 wells", "result": 29, "unit": "%"},
      {"measurement": "viability at 24 h, 230 μM", "setting": "[1]; Formula A1 230 μM, 24 hours, MTT, mean of 6 wells", "result": 63, "unit": "%"},
      {"measurement": "viability at 24 h, 253 μM", "setting": "[1]; Formula A1 253 μM, 24 hours, MTT, mean of 6 wells", "result": 28, "unit": "%"},
      {"measurement": "viability at 24 h, 500 µM", "setting": "[1]; Formula A1 500 μM, 24 hours, MTT, mean of 6 wells", "result": 11, "unit": "%"},
      {"measurement": "IC50", "setting": "A549", "result": 197, "unit": "µM"},
      {"measurement": "viability at 24 h, 20 μM", "setting": "[3]; 20 μM", "result": 69, "unit": "%"},
      {"measurement": "viability at 24 h, 50 μM", "setting": "[3]; 50 μM", "result": 69, "unit": "%"},
      {"measurement": "viability at 24 h, 100 μM", "setting": "[3]; 100 μM", "result": 54, "unit": "%"},
      {"measurement": "viability at 24 h, 150 μM", "setting": "[3]; 150 μM", "result": 50, "unit": "%"},
      {"measurement": "viability at 24 h, 180 μM", "setting": "[3]; 180 μM", "result": 16, "unit": "%"},
      {"measurement": "viability at 24 h, 230 μM", "setting": "[3]; 230 μM", "result": 17, "unit": "%"},
      {"measurement": "viability at 24 h, 253 μM", "setting": "[3]; 253 μM", "result": 19, "unit": "%"},
      {"measurement": "viability at 24 h, 500 µM", "setting": "[3]; 500 μM", "result": 22, "unit": "%"},
      {"measurement": "viability at 24 h, 200 µM", "setting": "[4]; 200 μM", "result": 91, "unit": "%"},
      {"measurement": "viability at 24 h, 300 µM", "setting": "[4]; 300 μM", "result": 58, "unit": "%"},
      {"measurement": "viability at 24 h, 400 µM", "setting": "[4]; 400 μM", "result": 33, "unit": "%"},
      {"measurement": "viability at 24 h, 500 µM", "setting": "[4]; 500 μM", "result": 24, "unit": "%"},
      {"measurement": "viability at 24 h, 50 μM", "setting": "[2]; Formula A1 50 μM, 24 hours, MTT, mean of 6 wells", "result": 94, "unit": "%"}
    ]}
  ]
}
